In brackets after ≈: the same amount, converted by molar mass. Entries after “also recorded” stand apart in the source; their conditions may differ. Where two headings read alike, the source gives them in different places.
Legend:
H37Rv strain of Mtb = assay: microbe, parasite or virus in culture; assay type: cell-based, M. tuberculosis
Vero monkey kidney cells = assay: In vitro toxicity, MTS assay in Vero cells; assay type: cell-based; settings: for SI (selectivity index, ratio of IC50:MIC): IC50 Vero cells : MIC
Method: Cytotoxicity The Vero cell line (ATCC CCL-8 1) was seeded overnight at 5×10^4 cells per well in 96-well plates at 37° C. and 5% CO2 in EMEM with essential amino acids and glutamine (BioFluids) supplemented with 10% heat-inactivated fetal bovine serum (FBS). Cells were exposed to dilutions of experimental and control drugs in triplicate for 72 hr, with each compound at a range of concentrations from 15-200 μM. Chlorpromazine (Sigma) was run as a control at the same concentrations. CellTiter 96 AQueous Assay (Promega) was used for determination of Vero cell viability. Briefly, a solution of MTS salt (3-(4,5-dimethylthiazol-2-yl)-5-(3-carboxymethoxyphenyl)-2-(4-sulfophenyl)-2H-tetrazolium) and phenazine methosulfate was added to each well and plates were incubated for 2 hr at 37° C. and 5% CO2. Absorbance of each well was read using BioRad microplate reader at 490 nm. Viability (absorbance) of cells in drug-exposed wells was compared to those in drug-free control wells, and a curve relating cell viability to drug concentration was created.

M. tuberculosis = settings: background statement; cited from earlier work
M. tuberculosis H37Rv [1] = assay: Rapid (3 wk) murine model of TB, body weight loss; assay type: in vivo, mice; settings: for prevention of body weight loss and mortality: mice iv 10^6 CFU, test drugs 10 mg/kg daily by gavage for 10 days, INH 25 or 2.5 mg/kg; for loss of initial body weight: by day 21 following challenge, 10 mg/kg
HepG2 cell line = assay: In vitro cytotoxicity, MTS assay in HepG2 cell line; assay type: cell-based; settings: Homo sapiens, HepG2 cells
[2] = test system: M. tuberculosis in TB-infected mouse macrophage RAW 264.7 cells; assay: Efficacy in TB-infected macrophages, bioluminescence reporter assay; assay type: cell-based; settings: for efficacy in macrophages compared to standard drugs (words): RAW 264.7, treated 6 days, 4 timepoints, five concentrations; for intracellular activity compared to EMB and INH: RAW 264.7, 7 days, day 7 readout
M. tuberculosis H37Rv [3] = assay: Murine model of chronic TB, CFU in lung and spleen; assay type: in vivo, mice; settings: for activity against M. tuberculosis in vivo: mice, two models (rapid and chronic)
[4] = test system: recombinant mycobacteria containing a promoter fusion of luciferase to Rv0341; assay type: cell-based, M. tuberculosis; settings: active = exceeds untreated control by 1.5 times
[5] = list of preferred compounds (FIG. 20)
[6] = cytotoxicity, list of preferred compounds (FIG. 20), read-out: IC50
[7] = Mycobacterium tuberculosis, H37RV, list of preferred compounds (FIG. 20), read-out: MIC
[8] = Primates, Vero, cytotoxicity, list of preferred compounds (FIG. 20), read-out: IC50
[9] = Mycobacterium tuberculosis, H37RV, Examples 4 and 5 and screening summary, read-out: MIC
[10] = Mycobacterium tuberculosis, H37RV, read-out: MIC

| SMILES | MIC (H37Rv strain of Mtb; [7]) [µM] | SI (selectivity index, ratio of IC50:MIC) (Vero monkey kidney cells) | IC50 (Vero monkey kidney cells; [8]) [µM] | MIC (H37Rv strain of Mtb; [9]) [µM] | MIC (H37Rv strain of Mtb; [10]) [µM] | IC50 (HepG2 cell line) [µM] | further results |
| --- | --- | --- | --- | --- | --- | --- | --- |
| CC(C)=CCC/C(C)=C/CNCCCN1CCCCC1C (stereo not drawn) [#711, 1-(N-Geranyl)-3-Aminopropylpipecoline] | – | – | – | – | – | – | MIC (H37Rv strain of Mtb; [5]): 6.25 µM (≈ 1.83 µg/mL) |
| CC1CCCCN1CCCNCc1ccc(C(F)(F)F)cc1 (stereo not drawn) [#712, 1-(N-(4-Trifluorobenzyl)-3-Aminopropyl)pipecoline] | – | – | – | – | – | – | MIC (H37Rv strain of Mtb; [5]): 12.5 µM (≈ 3.93 µg/mL) |
| Fc1ccccc1N1CCN(C2CCC3CCCCC3C2)CC1 (stereo not drawn) [#765, N-(2-Fluorophenyl)-N′-(2-decalone)piperazine] | – | – | – | – | – | – | MIC (H37Rv strain of Mtb): 6.25 µM (≈ 1.98 µg/mL); IC50 (Vero monkey kidney cells; [6]): 70 µM |
| CCOc1ccccc1CN1CCN(c2ccccc2F)CC1 [#766, N-(2-Fluorophenyl)-N′-(2-ethoxybenzyl)piperazine] | 12.5 (≈ 3.93 µg/mL) | 6.08 | – | – | – | – | IC50 (Vero monkey kidney cells; Primates, Vero): 76 µM |
| c1ccc(CN2CCN(C3C4CC5CC(C4)CC3C5)CC2)cc1 (stereo not drawn) [#785, N-Benzyl-N′-2-Adamantylpiperazine] | 12.5 (≈ 3.88 µg/mL) | 7.76 | 97 | – | – | – | – |
| c1ccc(CN2CCN(C3CCC4CCCCC4C3)CC2)cc1 (stereo not drawn) [#787, N-Benzyl-N′-2-Decalonepiperazine] | – | – | – | – | – | – | MIC (H37Rv strain of Mtb; [5]): 12.5 µM (≈ 3.91 µg/mL); IC50 (Vero monkey kidney cells; [6]): 70 µM |
| CC[C@@H](CO)NCCN[C@@H](CC)CO [EMB, Ethambutol, reference compound] | – | – | – | 12.5 (≈ 2.55 µg/mL) | – | – | Minimum Inhibition Concentration (MIC) (M. tuberculosis): about 5 μg/ml |
| NNC(=O)c1ccncc1 [INH, Isoniazid, reference compound] | – | – | – | 1 (≈ 0.137 µg/mL) | – | – | prevention of body weight loss and mortality (M. tuberculosis H37Rv [1]): did not show any signs of body loss |
| C1CN(C2C3CC4CC(C3)CC2C4)CCN(C2C3CC4CC(C3)CC2C4)C1 (stereo not drawn) [SQ775, N,N′-Bis(2-Adamantane)homopiperazine] | 7.8 (≈ 2.88 µg/mL) | 16.92 | 132 | 6.25 (≈ 2.3 µg/mL) | 7.8 (≈ 2.88 µg/mL) | 132 | efficacy in macrophages compared to standard drugs (words) ([2]; listed as 775): as effective as isoniazid; efficacy in macrophages compared to standard drugs (words) ([2]; listed as #775): equal or superior to ethambutol; inhibition of bacterial growth ([2]; intracellular, RAW 264.7, day 7, concentration 2×MIC): 99%; loss of initial body weight (M. tuberculosis H37Rv [1]): 4%; prevention of body weight loss and mortality (M. tuberculosis H37Rv [1]): prevented body weight loss and delayed mortality; mortality in the group (M. tuberculosis H37Rv [1]; one week after chemotherapy withdrawn, 6 mice): 50%; loss of initial body weight of mice that remained alive (M. tuberculosis H37Rv [1]; ten days later, after chemotherapy withdrawal, 3 mice): about 20%; activity against M. tuberculosis in vivo (M. tuberculosis H37Rv [3]): promising activity against M.tb in vivo; also recorded: efficacious |
| C1CCCC(N2CCCN(C3CCCCCCC3)CC2)CCC1 [SQ777] | – | – | – | – | 7.8 (≈ 2.5 µg/mL) | 74 | – |
| C1CCC2CC(N3CCCN(C4CCC5CCCCC5C4)CC3)CCC2C1 (stereo not drawn) [SQ778, N,N′-Bis(2-Decalone)homopiperazine] | 7.8 (≈ 2.91 µg/mL) | 6.92 | 54 | – | 7.8 (≈ 2.91 µg/mL) | 54 | – |
| CC1(C)C2CC=C(CN3CCCN(CC4=CCC5CC4C5(C)C)CC3)C1C2 [SQ779] | 7.8 (≈ 2.88 µg/mL) | 14.1 | 110 | – | 7.8 (≈ 2.88 µg/mL) | 110 | – |
| CCOc1ccccc1CN1CCCN(Cc2ccccc2OCC)CC1 [SQ780, N,N′-Bis(2-Ethoxybenzyl)homopiperazine] | 1.56 (≈ 0.575 µg/mL) | 18.21 | 71 | 1.56 (≈ 0.575 µg/mL) | 3.9 (≈ 1.44 µg/mL) | 71 | intracellular activity compared to EMB and INH [2]: equivalent to or better than EMB, but less active than INH; efficacy in macrophages compared to standard drugs (words) [2]: equal or superior to ethambutol; loss of initial body weight (M. tuberculosis H37Rv [1]): 13%; prevention of body weight loss and mortality (M. tuberculosis H37Rv [1]): low efficacy; also recorded: not active; reduction of CFU in spleen (M. tuberculosis H37Rv [3]; 10 mg/kg daily by gavage, 28 days, museum strain of H37Rv): 1 log; activity against M. tuberculosis in vivo (M. tuberculosis H37Rv [3]): efficacious |
| C=C(C)[C@@H]1CC=C(CN2CCCN(CC3=CC[C@@H](C(=C)C)CC3)CC2)CC1 [SQ781] | – | – | – | – | – | – | MIC (H37Rv strain of Mtb; Examples 4 and 5 and screening summary): high MIC |
| COc1ccccc1CN1CCCN(Cc2ccccc2OC)CC1 [SQ782] | – | – | – | 6.25 (≈ 2.13 µg/mL) | 7.8 (≈ 2.66 µg/mL) | 105 | intracellular activity compared to EMB and INH [2]: equivalent to or better than EMB, but less active than INH; efficacy in macrophages compared to standard drugs (words) [2]: equal or superior to ethambutol |
| c1ccc(COc2ccc(CN3CCN(Cc4ccccc4)CC3)cc2)cc1 [SQ786, N -benzyl-N′-(4-benzyloxy)benzylpiperazine] | – | – | – | 3.9 (≈ 1.45 µg/mL) | 3.13 (≈ 1.17 µg/mL) | 54 | activity in the Luc assay [4]: not active; prevention of body weight loss and mortality (M. tuberculosis H37Rv [1]): prevented body weight loss and delayed mortality; activity against M. tuberculosis in vivo (M. tuberculosis H37Rv [3]): promising activity against M.tb in vivo; also recorded: efficacious |
